# Numbers after ± are expanded uncertainties.
# Assay: molar heat capacity at constant pressure
# Details: 101.33 kPa, Metastable crystal, Vacuum adiabatic calorimetry
smiles,measurement,setting,value
O=P([O-])([O-])[O-].[Tb+3] [terbium orthophosphate],molar heat capacity at constant pressure,7 K,0.2233 ± 0.014 J/K/mol
same,molar heat capacity at constant pressure,8 K,0.3348 ± 0.019 J/K/mol
same,molar heat capacity at constant pressure,8.48 K,0.404 ± 0.027 J/K/mol
same,molar heat capacity at constant pressure,9 K,0.4742 ± 0.026 J/K/mol
same,molar heat capacity at constant pressure,9.05 K,0.511 ± 0.033 J/K/mol
same,molar heat capacity at constant pressure,9.71 K,0.655 ± 0.042 J/K/mol
same,molar heat capacity at constant pressure,10 K,0.6496 ± 0.035 J/K/mol
same,molar heat capacity at constant pressure,10.37 K,0.779 ± 0.049 J/K/mol
same,molar heat capacity at constant pressure,11.05 K,0.934 ± 0.058 J/K/mol
same,molar heat capacity at constant pressure,11.74 K,1.116 ± 0.069 J/K/mol
same,molar heat capacity at constant pressure,12 K,1.115 ± 0.057 J/K/mol
same,molar heat capacity at constant pressure,12.45 K,1.328 ± 0.082 J/K/mol
same,molar heat capacity at constant pressure,13.16 K,1.551 ± 0.095 J/K/mol
same,molar heat capacity at constant pressure,13.89 K,1.784 ± 0.11 J/K/mol
same,molar heat capacity at constant pressure,14 K,1.738 ± 0.089 J/K/mol
same,molar heat capacity at constant pressure,14.62 K,2.037 ± 0.12 J/K/mol
same,molar heat capacity at constant pressure,15.36 K,2.349 ± 0.14 J/K/mol
same,molar heat capacity at constant pressure,16 K,2.51 ± 0.13 J/K/mol
same,molar heat capacity at constant pressure,16.12 K,2.666 ± 0.16 J/K/mol
same,molar heat capacity at constant pressure,16.88 K,2.985 ± 0.18 J/K/mol
same,molar heat capacity at constant pressure,17.64 K,3.316 ± 0.2 J/K/mol
same,molar heat capacity at constant pressure,18 K,3.404 ± 0.17 J/K/mol
same,molar heat capacity at constant pressure,18.41 K,3.69 ± 0.22 J/K/mol
same,molar heat capacity at constant pressure,19.18 K,4.058 ± 0.24 J/K/mol
same,molar heat capacity at constant pressure,19.96 K,4.44 ± 0.27 J/K/mol
same,molar heat capacity at constant pressure,20 K,4.388 ± 0.22 J/K/mol
same,molar heat capacity at constant pressure,21.2 K,5.035 ± 0.11 J/K/mol
same,molar heat capacity at constant pressure,22.67 K,5.753 ± 0.12 J/K/mol
same,molar heat capacity at constant pressure,24.17 K,6.522 ± 0.14 J/K/mol
same,molar heat capacity at constant pressure,25 K,7.043 ± 0.14 J/K/mol
same,molar heat capacity at constant pressure,25.69 K,7.302 ± 0.15 J/K/mol
same,molar heat capacity at constant pressure,27.22 K,8.099 ± 0.17 J/K/mol
same,molar heat capacity at constant pressure,28.76 K,8.951 ± 0.18 J/K/mol
same,molar heat capacity at constant pressure,30 K,9.779 ± 0.2 J/K/mol
same,molar heat capacity at constant pressure,30.31 K,9.817 ± 0.2 J/K/mol
same,molar heat capacity at constant pressure,31.87 K,10.74 ± 0.22 J/K/mol
same,molar heat capacity at constant pressure,33.44 K,11.64 ± 0.24 J/K/mol
same,molar heat capacity at constant pressure,35 K,12.55 ± 0.26 J/K/mol
same,molar heat capacity at constant pressure,35.02 K,12.43 ± 0.25 J/K/mol
same,molar heat capacity at constant pressure,36.6 K,13.44 ± 0.27 J/K/mol
same,molar heat capacity at constant pressure,38.18 K,14.4 ± 0.29 J/K/mol
same,molar heat capacity at constant pressure,39.77 K,15.33 ± 0.31 J/K/mol
same,molar heat capacity at constant pressure,40 K,15.41 ± 0.31 J/K/mol
same,molar heat capacity at constant pressure,41.38 K,16.26 ± 0.2 J/K/mol
same,molar heat capacity at constant pressure,42.98 K,17.22 ± 0.21 J/K/mol
same,molar heat capacity at constant pressure,44.6 K,18.17 ± 0.23 J/K/mol
same,molar heat capacity at constant pressure,45 K,18.37 ± 0.19 J/K/mol
same,molar heat capacity at constant pressure,46.24 K,19.19 ± 0.24 J/K/mol
same,molar heat capacity at constant pressure,47.86 K,20.2 ± 0.25 J/K/mol
same,molar heat capacity at constant pressure,49.48 K,21.22 ± 0.26 J/K/mol
same,molar heat capacity at constant pressure,50 K,21.44 ± 0.22 J/K/mol
same,molar heat capacity at constant pressure,51.11 K,22.24 ± 0.27 J/K/mol
same,molar heat capacity at constant pressure,52.74 K,23.26 ± 0.29 J/K/mol
same,molar heat capacity at constant pressure,54.37 K,24.23 ± 0.3 J/K/mol
same,molar heat capacity at constant pressure,55 K,24.56 ± 0.25 J/K/mol
same,molar heat capacity at constant pressure,56 K,25.23 ± 0.31 J/K/mol
same,molar heat capacity at constant pressure,57.64 K,26.25 ± 0.32 J/K/mol
same,molar heat capacity at constant pressure,59.28 K,27.25 ± 0.33 J/K/mol
same,molar heat capacity at constant pressure,60 K,27.69 ± 0.29 J/K/mol
same,molar heat capacity at constant pressure,60.93 K,28.25 ± 0.35 J/K/mol
same,molar heat capacity at constant pressure,62.57 K,29.31 ± 0.36 J/K/mol
same,molar heat capacity at constant pressure,64.22 K,30.35 ± 0.37 J/K/mol
same,molar heat capacity at constant pressure,65.88 K,31.35 ± 0.38 J/K/mol
same,molar heat capacity at constant pressure,67.53 K,32.33 ± 0.4 J/K/mol
same,molar heat capacity at constant pressure,69.19 K,33.27 ± 0.41 J/K/mol
same,molar heat capacity at constant pressure,70 K,33.8 ± 0.35 J/K/mol
same,molar heat capacity at constant pressure,71.05 K,34.29 ± 0.42 J/K/mol
same,molar heat capacity at constant pressure,73.13 K,35.52 ± 0.43 J/K/mol
same,molar heat capacity at constant pressure,75.2 K,36.74 ± 0.45 J/K/mol
same,molar heat capacity at constant pressure,77.26 K,38.04 ± 0.46 J/K/mol
same,molar heat capacity at constant pressure,79.33 K,39.29 ± 0.48 J/K/mol
same,molar heat capacity at constant pressure,80 K,39.56 ± 0.4 J/K/mol
same,molar heat capacity at constant pressure,81.4 K,40.39 ± 0.49 J/K/mol
same,molar heat capacity at constant pressure,83.47 K,41.31 ± 0.5 J/K/mol
same,molar heat capacity at constant pressure,83.73 K,41.32 ± 0.5 J/K/mol
same,molar heat capacity at constant pressure,85.54 K,42.27 ± 0.52 J/K/mol
same,molar heat capacity at constant pressure,85.78 K,42.39 ± 0.52 J/K/mol
same,molar heat capacity at constant pressure,87.61 K,43.75 ± 0.53 J/K/mol
same,molar heat capacity at constant pressure,87.83 K,43.95 ± 0.54 J/K/mol
same,molar heat capacity at constant pressure,89.69 K,44.86 ± 0.55 J/K/mol
same,molar heat capacity at constant pressure,89.89 K,45.03 ± 0.55 J/K/mol
same,molar heat capacity at constant pressure,90 K,44.91 ± 0.48 J/K/mol
same,molar heat capacity at constant pressure,91.76 K,45.8 ± 0.58 J/K/mol
same,molar heat capacity at constant pressure,91.94 K,46.03 ± 0.58 J/K/mol
same,molar heat capacity at constant pressure,93.84 K,46.75 ± 0.59 J/K/mol
same,molar heat capacity at constant pressure,94 K,47.04 ± 0.59 J/K/mol
same,molar heat capacity at constant pressure,95.93 K,47.75 ± 0.6 J/K/mol
same,molar heat capacity at constant pressure,96.06 K,48.09 ± 0.6 J/K/mol
same,molar heat capacity at constant pressure,98.01 K,48.74 ± 0.61 J/K/mol
same,molar heat capacity at constant pressure,98.12 K,49.05 ± 0.61 J/K/mol
same,molar heat capacity at constant pressure,100 K,49.89 ± 0.53 J/K/mol
same,molar heat capacity at constant pressure,100.09 K,49.85 ± 0.62 J/K/mol
same,molar heat capacity at constant pressure,100.18 K,50.06 ± 0.63 J/K/mol
same,molar heat capacity at constant pressure,102.79 K,51.27 ± 0.64 J/K/mol
same,molar heat capacity at constant pressure,102.86 K,51.16 ± 0.64 J/K/mol
same,molar heat capacity at constant pressure,106.14 K,52.71 ± 0.66 J/K/mol
same,molar heat capacity at constant pressure,109.43 K,54.24 ± 0.68 J/K/mol
same,molar heat capacity at constant pressure,110 K,54.53 ± 0.57 J/K/mol
same,molar heat capacity at constant pressure,112.71 K,55.74 ± 0.69 J/K/mol
same,molar heat capacity at constant pressure,116.01 K,57.18 ± 0.71 J/K/mol
same,molar heat capacity at constant pressure,119.3 K,58.57 ± 0.73 J/K/mol
same,molar heat capacity at constant pressure,120 K,58.89 ± 0.62 J/K/mol
same,molar heat capacity at constant pressure,122.6 K,59.95 ± 0.74 J/K/mol
same,molar heat capacity at constant pressure,125.9 K,61.32 ± 0.76 J/K/mol
same,molar heat capacity at constant pressure,129.2 K,62.65 ± 0.77 J/K/mol
same,molar heat capacity at constant pressure,130 K,63 ± 0.66 J/K/mol
same,molar heat capacity at constant pressure,132.49 K,63.94 ± 0.79 J/K/mol
same,molar heat capacity at constant pressure,135.79 K,65.24 ± 0.81 J/K/mol
same,molar heat capacity at constant pressure,139.09 K,66.54 ± 0.82 J/K/mol
same,molar heat capacity at constant pressure,140 K,66.91 ± 0.7 J/K/mol
same,molar heat capacity at constant pressure,142.39 K,67.77 ± 0.84 J/K/mol
same,molar heat capacity at constant pressure,145.69 K,69.04 ± 0.85 J/K/mol
same,molar heat capacity at constant pressure,148.98 K,70.3 ± 0.87 J/K/mol
same,molar heat capacity at constant pressure,150 K,70.62 ± 0.73 J/K/mol
same,molar heat capacity at constant pressure,152.28 K,71.55 ± 0.88 J/K/mol
same,molar heat capacity at constant pressure,155.57 K,72.72 ± 0.89 J/K/mol
same,molar heat capacity at constant pressure,158.87 K,73.84 ± 0.91 J/K/mol
same,molar heat capacity at constant pressure,160 K,74.17 ± 0.77 J/K/mol
same,molar heat capacity at constant pressure,162.16 K,74.93 ± 0.92 J/K/mol
same,molar heat capacity at constant pressure,165.45 K,76.02 ± 0.93 J/K/mol
same,molar heat capacity at constant pressure,168.73 K,77.12 ± 0.95 J/K/mol
same,molar heat capacity at constant pressure,170 K,77.56 ± 0.8 J/K/mol
same,molar heat capacity at constant pressure,172.02 K,78.29 ± 0.96 J/K/mol
same,molar heat capacity at constant pressure,175.28 K,79.23 ± 0.97 J/K/mol
same,molar heat capacity at constant pressure,178.56 K,80.19 ± 0.98 J/K/mol
same,molar heat capacity at constant pressure,180 K,80.8 ± 0.83 J/K/mol
same,molar heat capacity at constant pressure,181.84 K,81.29 ± 1 J/K/mol
same,molar heat capacity at constant pressure,185.11 K,82.39 ± 1 J/K/mol
same,molar heat capacity at constant pressure,188.38 K,83.45 ± 1 J/K/mol
same,molar heat capacity at constant pressure,190 K,83.89 ± 0.86 J/K/mol
same,molar heat capacity at constant pressure,191.65 K,84.37 ± 1 J/K/mol
same,molar heat capacity at constant pressure,194.92 K,85.28 ± 1 J/K/mol
same,molar heat capacity at constant pressure,198.18 K,86.29 ± 1.1 J/K/mol
same,molar heat capacity at constant pressure,200 K,86.85 ± 0.89 J/K/mol
same,molar heat capacity at constant pressure,201.43 K,87.36 ± 1.1 J/K/mol
same,molar heat capacity at constant pressure,205.1 K,88.44 ± 1.1 J/K/mol
same,molar heat capacity at constant pressure,209.15 K,89.46 ± 1.1 J/K/mol
same,molar heat capacity at constant pressure,210 K,89.66 ± 0.92 J/K/mol
same,molar heat capacity at constant pressure,213.21 K,90.54 ± 1.1 J/K/mol
same,molar heat capacity at constant pressure,217.26 K,91.68 ± 1.1 J/K/mol
same,molar heat capacity at constant pressure,220 K,92.36 ± 0.95 J/K/mol
same,molar heat capacity at constant pressure,221.31 K,92.89 ± 1.1 J/K/mol
same,molar heat capacity at constant pressure,225.34 K,93.96 ± 1.1 J/K/mol
same,molar heat capacity at constant pressure,229.34 K,95.06 ± 1.2 J/K/mol
same,molar heat capacity at constant pressure,230 K,94.92 ± 0.97 J/K/mol
same,molar heat capacity at constant pressure,233.27 K,95.82 ± 1.2 J/K/mol
same,molar heat capacity at constant pressure,237.28 K,96.8 ± 1.2 J/K/mol
same,molar heat capacity at constant pressure,240 K,97.37 ± 1 J/K/mol
same,molar heat capacity at constant pressure,241.28 K,97.76 ± 1.2 J/K/mol
same,molar heat capacity at constant pressure,245.26 K,98.58 ± 1.2 J/K/mol
same,molar heat capacity at constant pressure,249.23 K,99.5 ± 1.2 J/K/mol
same,molar heat capacity at constant pressure,250 K,99.7 ± 1 J/K/mol
same,molar heat capacity at constant pressure,253.16 K,100.4 ± 1.2 J/K/mol
same,molar heat capacity at constant pressure,257.1 K,101.2 ± 1.2 J/K/mol
same,molar heat capacity at constant pressure,260 K,101.9 ± 1 J/K/mol
same,molar heat capacity at constant pressure,260.99 K,102.1 ± 1.2 J/K/mol
same,molar heat capacity at constant pressure,264.86 K,102.9 ± 1.3 J/K/mol
same,molar heat capacity at constant pressure,268.76 K,103.8 ± 1.3 J/K/mol
same,molar heat capacity at constant pressure,270 K,104 ± 1.1 J/K/mol
same,molar heat capacity at constant pressure,272.6 K,104.6 ± 1.3 J/K/mol
same,molar heat capacity at constant pressure,276.41 K,105.3 ± 1.3 J/K/mol
same,molar heat capacity at constant pressure,280 K,106 ± 1.1 J/K/mol
same,molar heat capacity at constant pressure,280.2 K,105.9 ± 1.3 J/K/mol
same,molar heat capacity at constant pressure,283.96 K,106.6 ± 1.3 J/K/mol
same,molar heat capacity at constant pressure,287.7 K,107.3 ± 1.3 J/K/mol
same,molar heat capacity at constant pressure,290 K,107.9 ± 1.1 J/K/mol
